Test system: MELOE-1 specific CD4 T cells
Test: MELOE-1 CD4+ T cell responses in PBMC from melanoma patients: restimulation with peptides, CD4/IFN-γ (Th1) and CD4/IL4 (Th2) staining
Format: cell-based, human
Settings: for mean % of cytokine producing CD4 T cells, in positive microcultures (IFN-γ): Th1; for mean % of cytokine producing CD4 T cells, in positive microcultures (IL4): Th2; for Th1 responses (IFN-γ positive microcultures) / Th2 responses (IL4 positive microcultures): positive/tested microcultures
Description: PBMC from melanoma patients were stimulated with 10 μM of MELOE-1. After 14 days, the presence of CD4 T cells specific for the different regions of MELOE-1 was assessed by restimulating cells with MELOE-12-21, MELOE-111-30 and MELOE-122-46 peptides, followed by CD4/IFN-γ double staining for the detection of Th1 responses, and by CD4/IL4 double staining for Th2 responses. Between brackets is indicated the mean % of cytokine producing CD4 T cells, in positive microcultures.
PBMC from healthy donors or melanoma patients (2·10^5 cells/well) were cultured for 14 days with 10 μM of MELOE-1 whole antigen (46 amino acids) in RPMI medium supplemented with 8% HS, 50 IU/ml of rIL-2 (Chiron, France) and L-Glutamin, in 96-well multiplates. Microcultures were then restimulated individually with each overlapping peptide (MELOE-12-21, MELOE-111-30, MELOE-118-37, MELOE-12646 or MELOE-122-46 for melanoma patients) in the presence of 10 μg/mL brefeldin A for 5 hours and the percentage of CD4^+ specific T cells was assessed by TNF-α, IFN-γ or IL-4 intracellular staining. A negative control without peptide was included in all experiments.
In order to confirm the immunogenicity of each MELOE-1 regions in melanoma patients, we stimulated melanoma patients PBMC with the MELOE-1 whole protein, and tested the reactivity of stimulated lymphocytes towards the three most immunogenic regions: 2-21, 11-30, and 22-46. For this study, instead of challenging microcultures with the 18-37 peptide, that appeared poorly immunogenic, we extended the C-terminus region from 26-46 to 22-46, in order to also detect responses to our previously described HLA-DR11-restricted epitope (24-37). […] We tested the induction of CD4 specific responses from MELOE-1 stimulated PBMC of […] melanoma patients. We documented CD4 responses specific for the central region of MELOE-1 (11-30) for 7/9 patients, whereas responses specific for MELOE-12-21 and MELOE-122-46 were respectively detected in 4/9 and 5/9 patients (Table III). These responses were mainly Th1 responses (IFN-g production) while less frequent Th2 responses specific for the three regions of MELOE-1 were detected in 3/9 patients for MELOE-12-21, 2/9 patients for MELOE-111-30 and 5/9 patients for MELOE-122-46 (Table III). […] Concerning Th2 responses, much less frequent, the C-term region appeared to induce more frequently the growth of IL-4 producing CD4 T cells than the two other regions (FIG. 2A). […] In summary, stimulation of patient's PBMC with MELOE-1 induced Th1 responses specific for diverse epitopes located all along the protein sequence, and among the different regions, the central region (11-30) and the C-term region (22-46) appeared to be especially immunogenic in term of frequency of responses.

AACPPWHPSERISSTLNDECWPASL [MELOE-122-46]
Th1 responses, % of tested microcultures (576 tested microcultures from melanoma patients, IFN-γ): 9.6% | patients in which Th2 responses were detected (melanoma patients, IL4): 5/9 | patients in which CD4 responses specific for the region were detected (melanoma patients, Table III, Th1 (IFN-γ)): 5/9 | mean % of cytokine producing CD4 T cells, in positive microcultures (IFN-γ) (patient Pt ≠ 1): (4.8% ± 7.2) | mean % of cytokine producing CD4 T cells, in positive microcultures (IL4) (patient Pt ≠ 1): (0.8% ± 0.3) | Th1 responses (IFN-γ positive microcultures) (patient Pt ≠ 1): 11/48 | Th2 responses (IL4 positive microcultures) (patient Pt ≠ 1): 4/48 | mean % of cytokine producing CD4 T cells, in positive microcultures (IFN-γ) (patient Pt ≠ 2): (0.6% ± 0.02) | Th1 responses (IFN-γ positive microcultures) (patient Pt ≠ 2): 2/96 | Th2 responses (IL4 positive microcultures) (patient Pt ≠ 2): 0/96 | Th1 responses (IFN-γ positive microcultures) (patient Pt ≠ 3 (DPβ1*0201/2001, DQβ1*0303/0501, DRβ1*0101/0701)): 4/96 | mean % of cytokine producing CD4 T cells, in positive microcultures (IFN-γ) (patient Pt ≠ 3): (1.9% ± 1.3) | Th2 responses (IL4 positive microcultures) (patient Pt ≠ 3): 0/96 | Th1 responses (IFN-γ positive microcultures) (patient Pt ≠ 4): 0/48 | Th2 responses (IL4 positive microcultures) (patient Pt ≠ 4): 0/48 | mean % of cytokine producing CD4 T cells, in positive microcultures (IL4) (patient Pt ≠ 5): (0.8%) | Th1 responses (IFN-γ positive microcultures) (patient Pt ≠ 5): 0/48 | Th2 responses (IL4 positive microcultures) (patient Pt ≠ 5): 1/48 | Th1 responses (IFN-γ positive microcultures) (patient Pt ≠ 6): 0/48 | Th2 responses (IL4 positive microcultures) (patient Pt ≠ 6): 0/48 | mean % of cytokine producing CD4 T cells, in positive microcultures (IFN-γ) (patient Pt ≠ 7): (2.9% ± 3.5) | mean % of cytokine producing CD4 T cells, in positive microcultures (IL4) (patient Pt ≠ 7): (1.5% ± 0.7) | Th1 responses (IFN-γ positive microcultures) (patient Pt ≠ 7): 28/48 | Th2 responses (IL4 positive microcultures) (patient Pt ≠ 7): 7/48 | mean % of cytokine producing CD4 T cells, in positive microcultures (IFN-γ) (patient Pt ≠ 8): (0.5%) | mean % of cytokine producing CD4 T cells, in positive microcultures (IL4) (patient Pt ≠ 8): (0.6%) | Th1 responses (IFN-γ positive microcultures) (patient Pt ≠ 8): 1/48 | Th2 responses (IL4 positive microcultures) (patient Pt ≠ 8): 1/48 | mean % of cytokine producing CD4 T cells, in positive microcultures (IL4) (patient Pt ≠ 9): (0.7% ± 0.15) | Th1 responses (IFN-γ positive microcultures) (patient Pt ≠ 9): 0/48 | Th2 responses (IL4 positive microcultures) (patient Pt ≠ 9): 3/48

Reference: patent publication US9475841B2, “Melanoma antigen peptide and uses thereof” (INSERM (INSTITUT NATIONAL DE LA SANTE ET DE LA RECHERCHE …, priority 2012, dated 2016)
